Reference: patent US20240401154A1, “SYNTHESIS AND PREPARATION OF ULTRA-LOW VISCOSITY AND HIGH MAGNETIC SUSCEPTIBILITY MAGNETIC IONIC LIQUIDS” (priority 2023, published 2024)
Marks after values point to notes of the source that are not given here.

How the values were obtained:
Type in all cases: physicochemical
[1] = Viscosity, Brookfield DVI cone and plate viscometer; settings: 21.7° C.; neat MIL dried 48 hours under vacuum
Description: A Brookfield DVI cone and plate viscometer equipped with a CPA-51Z cone spindle was employed to obtain viscosity measurements at […] using approximately 0.5 g of each MIL after extensive drying for 48 hours under vacuum. Viscosity measurements were conducted at 21.7° C. for 15 lanthanide and transition metal MILs examined in this study.
Viscosity measurements were conducted at 21.7° C. for 15 lanthanide and transition metal MILs examined in this study.

[2] = Effective magnetic moment from magnetic susceptibility balance (MSB); settings: per formula unit
Description: Magnetic properties were analyzed using a magnetic susceptibility balance (MSB, Sherwood Scientific, Cambridge, UK) and a Quantum Design Superconducting Quantum Interference Device (SQUID) magnetometer (MPMS XL-7). The magnetic properties of transition metal MILs were further studied using a SQUID magnetometer to confirm their paramagnetic nature as well as if any magnetic transition occurs in the samples.
Magnetic susceptibility (XM) was calculated through Equation (1).
Effective magnetic moment (μeff) was calculated through Equation (2). In Equation (2), T represents the temperature at which the magnetic susceptibility measurements were conducted.
15 MILs incorporating rare-earth and transition metals were examined using a magnetic susceptibility balance (MSB).

[3] = Solubility of MILs in organic solvents and water
Source text: The solubility of lanthanide and transition metal MILs was investigated in popular traditional organic solvents. […]
The solubility of lanthanide and transition metal MILs was investigated in popular traditional organic solvents.

[4] = Thermal stability, MIL as GC stationary phase with FID; settings: exponential increase in response beyond 2,000 pA
Description: (§1) The thermal stability of MILs was measured from 40 to 350° C. at a ramp rate of 5° C. min^−1 by performing thermogravimetric analysis (TGA) using a NETZSCH STA 449 F1 Jupiter thermal analyzer (Selb, Germany). To further investigate the thermal stability of MILs using a more sensitive technique, the solvents were employed as a gas chromatographic (GC) stationary phase and subjected to an oven temperature program from 40 to 200° C. at a ramp rate of 1° C. min^−1 and decomposition/degradation products detected using an ultra-sensitive flame ionization detector (FID), with all measurements being performed on an Agilent Technologies 7890B gas chromatograph (Santa Clara, CA, USA).
To further investigate the thermal stability of MILs using a more sensitive technique, the solvents were employed as a gas chromatographic (GC) stationary phase and subjected to an oven temperature program from 40 to 200° C. at a ramp rate of 1° C. min^−1 and decomposition/degradation products detected using an ultra-sensitive flame ionization detector (FID).

[5] = Thermal stability by thermogravimetric analysis (TGA); settings: TGA at 10% weight loss
Description: as §1
Volitization/degradation of MILs as a function of temperature were measured using thermogravimetric analysis. The thermal stability of magnetic ionic liquids was measured from 40 to 350° C. at a ramp rate of 5° C. min^−1 by performing thermogravimetric analysis (TGA) using a NETZSCH STA 449 F1 Jupiter thermal analyzer (Selb, Germany).
To investigate the ability of DGE-based MILs to withstand elevated temperatures without undergoing degradation/decomposition, their thermal stabilities were investigated using thermogravimetric analysis (TGA). FIG. 13 through FIG. 27 display thermograms for MILs 1 to 15. The thermogram results are summarized in greater detail in the following paragraphs.

[6] = acetone, chloroform, dichloromethane, acetonitrile, methanol, ethanol, diethyl ether, ethyl acetate, isopropanol at 20% (w/v)
[7] = hexane, heptane, benzene, toluene at 10% (w/v)
[8] = hexane, heptane, benzene, toluene at 20% (w/v)
[9] = twelve organic solvents (without acetonitrile) at 50% (w/v)

Compound	Viscosity (cP) [1]	μeff, effective magnetic moment [2]	Solubility [3, 6]	Solubility [3, 7]	Solubility [3, 8]	Solubility [3, 9]	Solubility ([3]; water at 0.01% (w/v))	Onset of MIL volatilization (° C.)^1 [4]	Onset of MIL volatilization (° C.)^2 [5]	Solubility ([3]; acetonitrile at 50% (w/v))
CCCCCCCCOC(=O)COCC(=O)OCCCCCCCC.CCCCCCCCOC(=O)COCC(=O)OCCCCCCCC.CCCCCCCCOC(=O)COCC(=O)OCCCCCCCC.CCCCCCCCOC(=O)COCC(=O)OCCCCCCCC.CCCCCCCCOC(=O)COCC(=O)OCCCCCCCC.CCCCCCCCOC(=O)COCC(=O)OCCCCCCCC.O=C(C=C([O-])C(F)(F)F)C(F)(F)F.O=C(C=C([O-])C(F)(F)F)C(F)(F)F.O=C(C=C([O-])C(F)(F)F)C(F)(F)F.O=C(C=C([O-])C(F)(F)F)C(F)(F)F.O=C(C=C([O-])C(F)(F)F)C(F)(F)F.O=C(C=C([O-])C(F)(F)F)C(F)(F)F.O=C(C=C([O-])C(F)(F)F)C(F)(F)F.O=C(C=C([O-])C(F)(F)F)C(F)(F)F.[Co+2].[Gd+3].[Gd+3] [compound 14]	149.1 cP	12.43 μB	S^b (soluble in acetone, chloroform, dichloromethane, acetonitrile, methanol, ethanol, diethyl ether, ethyl acetate, and isopropanol at 20% (w/v).)	S^a (soluble in hexane, heptane, benzene, and toluene at 10% (w/v).)	S^c (soluble in hexane, heptane, benzene, and toluene at 20% (w/v).)	S^d (soluble in acetone, chloroform, dichloromethane, methanol, ethanol, diethyl ether, ethyl acetate, isopropanol hexane, heptane, benzene, and toluene at 50% (w/v).)	S^f (insoluble in water at 0.01% (w/v).)	126 °C	172.9 °C	
O=C(C=C([O-])C(F)(F)F)C(F)(F)F.O=C(C=C([O-])C(F)(F)F)C(F)(F)F.O=C(C=C([O-])C(F)(F)F)C(F)(F)F.O=C(C=C([O-])C(F)(F)F)C(F)(F)F.O=C(C=C([O-])C(F)(F)F)C(F)(F)F.O=C(C=C([O-])C(F)(F)F)C(F)(F)F.O=C(COCC(=O)OC1CCCCC1)OC1CCCCC1.O=C(COCC(=O)OC1CCCCC1)OC1CCCCC1.O=C(COCC(=O)OC1CCCCC1)OC1CCCCC1.O=C(COCC(=O)OC1CCCCC1)OC1CCCCC1.O=C(COCC(=O)OC1CCCCC1)OC1CCCCC1.O=C(COCC(=O)OC1CCCCC1)OC1CCCCC1.[Ni+2].[Ni+2].[Ni+2] [compound 8]	827.6 cP	5.53 μB	S^b (soluble in acetone, chloroform, dichloromethane, acetonitrile, methanol, ethanol, diethyl ether, ethyl acetate, and isopropanol at 20% (w/v).)	S^a (soluble in hexane, heptane, benzene, and toluene at 10% (w/v).)	S^c (soluble in hexane, heptane, benzene, and toluene at 20% (w/v).)	S^d (soluble in acetone, chloroform, dichloromethane, methanol, ethanol, diethyl ether, ethyl acetate, isopropanol hexane, heptane, benzene, and toluene at 50% (w/v).)	S^f (insoluble in water at 0.01% (w/v).)	154 °C	182.2 °C	S^e (insoluble in acetonitrile at 50% (w/v).)
CCCCCCCCOC(=O)COCC(=O)OCCCCCCCC.CCCCCCCCOC(=O)COCC(=O)OCCCCCCCC.CCCCCCCCOC(=O)COCC(=O)OCCCCCCCC.CCCCCCCCOC(=O)COCC(=O)OCCCCCCCC.CCCCCCCCOC(=O)COCC(=O)OCCCCCCCC.CCCCCCCCOC(=O)COCC(=O)OCCCCCCCC.O=C(C=C([O-])C(F)(F)F)C(F)(F)F.O=C(C=C([O-])C(F)(F)F)C(F)(F)F.O=C(C=C([O-])C(F)(F)F)C(F)(F)F.O=C(C=C([O-])C(F)(F)F)C(F)(F)F.O=C(C=C([O-])C(F)(F)F)C(F)(F)F.O=C(C=C([O-])C(F)(F)F)C(F)(F)F.[Co+2].[Co+2].[Co+2] [compound 4]	31.6 cP	8.57 μB	S^b (soluble in acetone, chloroform, dichloromethane, acetonitrile, methanol, ethanol, diethyl ether, ethyl acetate, and isopropanol at 20% (w/v).)	S^a (soluble in hexane, heptane, benzene, and toluene at 10% (w/v).)	S^c (soluble in hexane, heptane, benzene, and toluene at 20% (w/v).)	S^d (soluble in acetone, chloroform, dichloromethane, methanol, ethanol, diethyl ether, ethyl acetate, isopropanol hexane, heptane, benzene, and toluene at 50% (w/v).)	S^f (insoluble in water at 0.01% (w/v).)	185 °C	262.9 °C	
CCCCCCCCOC(=O)COCC(=O)OCCCCCCCC.CCCCCCCCOC(=O)COCC(=O)OCCCCCCCC.CCCCCCCCOC(=O)COCC(=O)OCCCCCCCC.CCCCCCCCOC(=O)COCC(=O)OCCCCCCCC.CCCCCCCCOC(=O)COCC(=O)OCCCCCCCC.CCCCCCCCOC(=O)COCC(=O)OCCCCCCCC.O=C(C=C([O-])C(F)(F)F)C(F)(F)F.O=C(C=C([O-])C(F)(F)F)C(F)(F)F.O=C(C=C([O-])C(F)(F)F)C(F)(F)F.O=C(C=C([O-])C(F)(F)F)C(F)(F)F.O=C(C=C([O-])C(F)(F)F)C(F)(F)F.O=C(C=C([O-])C(F)(F)F)C(F)(F)F.O=C(C=C([O-])C(F)(F)F)C(F)(F)F.O=C(C=C([O-])C(F)(F)F)C(F)(F)F.[Co+2].[Dy+3].[Dy+3] [compound 13]	137.2 cP	15.38 μB	S^b (soluble in acetone, chloroform, dichloromethane, acetonitrile, methanol, ethanol, diethyl ether, ethyl acetate, and isopropanol at 20% (w/v).)	S^a (soluble in hexane, heptane, benzene, and toluene at 10% (w/v).)	S^c (soluble in hexane, heptane, benzene, and toluene at 20% (w/v).)	S^d (soluble in acetone, chloroform, dichloromethane, methanol, ethanol, diethyl ether, ethyl acetate, isopropanol hexane, heptane, benzene, and toluene at 50% (w/v).)	S^f (insoluble in water at 0.01% (w/v).)	131 °C	182.3 °C	
CCCCCCCCOC(=O)c1ccc(C(=O)OCCCCCCCC)o1.CCCCCCCCOC(=O)c1ccc(C(=O)OCCCCCCCC)o1.CCCCCCCCOC(=O)c1ccc(C(=O)OCCCCCCCC)o1.CCCCCCCCOC(=O)c1ccc(C(=O)OCCCCCCCC)o1.CCCCCCCCOC(=O)c1ccc(C(=O)OCCCCCCCC)o1.CCCCCCCCOC(=O)c1ccc(C(=O)OCCCCCCCC)o1.O=C(C=C([O-])C(F)(F)F)C(F)(F)F.O=C(C=C([O-])C(F)(F)F)C(F)(F)F.O=C(C=C([O-])C(F)(F)F)C(F)(F)F.O=C(C=C([O-])C(F)(F)F)C(F)(F)F.O=C(C=C([O-])C(F)(F)F)C(F)(F)F.O=C(C=C([O-])C(F)(F)F)C(F)(F)F.[Mn+2].[Mn+2].[Mn+2] [compound 12]	291.8^b cP	10.04 μB	S^b (soluble in acetone, chloroform, dichloromethane, acetonitrile, methanol, ethanol, diethyl ether, ethyl acetate, and isopropanol at 20% (w/v).)	S^a (soluble in hexane, heptane, benzene, and toluene at 10% (w/v).)	S^c (soluble in hexane, heptane, benzene, and toluene at 20% (w/v).)	S^d (soluble in acetone, chloroform, dichloromethane, methanol, ethanol, diethyl ether, ethyl acetate, isopropanol hexane, heptane, benzene, and toluene at 50% (w/v).)	S^f (insoluble in water at 0.01% (w/v).)	144 °C	160.4 °C	
